Measurements as given in patent US7294637B2 (Sepracor, Inc., priority 2000, dated 2007).
Like-named read-outs stand apart in the source and are kept apart here.

Legend:
[1] = tested on: Sprague-Dawley rats; assay: Spontaneous locomotor activity in rats, 1-24 hours (Example 223); format: in vivo, rat; details: 10 mg/kg i.p.; for locomotor activity compared to control animals: at all times tested (1, 3, 5, 8, 24 hours)
Method: The effect of 124 and 126 on spontaneous locomotor activity in rats was determined according to the procedures outlined by Silverman et al. (Motor Activity. In “Animal behavior in the laboratory”, Chapman and Hall eds, London, p. 79-92, 1978) and Boissier et al. (Arch. Int. Pharmacodyn. 1965, 158, 212. ) Test items and test item vehicles were administered to male Sprague-Dawley rats (n=10) as a single i.p. dose. One, three, five, eight and twenty four hours following administration, rats were placed in a plastic box 30×30 cm in a room with low light intensity (maximum 50 lux). Locomotor activity was determined during 20 minute periods using video image analyzers. Images recorded with video cameras were digitalized and displacements of the center of gravity of the digital image spot were tracked and analyzed. When the speed of displacement of the center of gravity of the spot was below 4.26 cm/sec, the movement was considered as inactivity. When this speed was between 4.26 and 6.75 cm/sec, the movement was considered as a small movement. When this speed was above 6.75 cm/sec, the movement was considered as a large movement. The number of occurrences, distance and duration of fast and slow movements, number of occurrences and duration of periods of inactivity and number of rears were measured.

[2] = tested on: mouse; assay: Acute toxicity assessment, maximum tolerated dose i.v., mouse; format: in vivo; details: mice, 10 mg/kg i.v.
Method: (§1) An in vivo evaluation was carried out to determine the maximum tolerated dose of numerous test compounds in two animal species (mouse and rat). The compounds were administered i.v. and the animals were then observed for 72 h. Compounds 114, 115, 113, 110, 124, 125, 129, and 130 were solubilized in 5% dextrose (w/v)/polyethylene glycol 400 (4:1 v/v). Compounds 126, 127, 131, and 132 were solubilized in 10% hydroxypropyl-β-cyclodextrin (w/v).

[3] = biological target: dopamine transporter (Homo sapiens, UniProt Q01959); assay: DA uptake: displacement of dopamine ligands in vitro (methods of Gu et al.); details: DA Uptake, Uptake Profile (IC50, nM), displacement of dopamine ligands in vitro
[4] = tested on: rat; assay: Acute toxicity assessment, maximum tolerated dose i.v., rat; format: in vivo; details: rats, 10 mg/kg i.v.
Method: as §1

[5] = biological target: DAT (Homo sapiens, UniProt Q01959); assay: cell-based; parameters: expressed in transfected cells; details: hDAT cell line; read-out: DA Uptake, Functional Assays (antagonism, EC50)
[6] = biological target: T1, serotonin transporter (Homo sapiens, UniProt P31645); assay: Functional activity, serotonin uptake inhibition in human HEK-293 cell lines; format: cell-based; parameters: expressed in transfected cells; host or cells: HEK-293; details: human HEK-293 cell lines; read-out: 5-HT Uptake, Functional Assays (antagonism, EC50)
[7] = tested on: rats; format: in vivo, rat; details: for % variation of the total duration of immobility: 1 h before test
Method: The animals were preconditioned in a pretest session, where the rats were individually forced to swim inside a vertical plexiglass cylinder containing water maintained at 19-20° C. […] Twenty four hours later, the compounds were administered intraperitoneal to the animals. One hour after administration of the test compound, animals were put back into the cylinder containing water. The total duration of immobility was measured during the last 4 minutes of a 6 minute test.
(§2) The results are expressed as the percentage of variation of the total duration of immobility calculated from the mean value of the vehicle-treated group (% variation=[(immobility duration of vehicle-immobility duration of test compound)/(immobility duration of vehicle)]×100%).

[8] = tested on: Sprague-Dawley rats; assay: Spontaneous locomotor activity in rats (Example 141); format: in vivo, rat; details: for locomotor activity compared to control animals: dosed at 5 and 10 mg/kg i.p.
Method: The effect of 124 and 126 on spontaneous locomotor activity in rats was determined according to the procedures outlined by Silverman et al. (Motor Activity. In “Animal behavior in the laboratory”, Chapman and Hall eds, London, p. 79-92, 1978) and Boissier et al. (Arch. Int. Pharmacodyn. 1965, 158, 212. )
Test items and test item vehicles were administered to male Sprague-Dawley rats (n=10) as a single i.p. dose (vehicle A=10% hydroxypropyl-β-cyclodextrin in water; vehicle B=4:1 5% aqueous dextrose:PEG 400). […] Locomotor activity was determined during 20 minute periods using video image analyzers. Images recorded with video cameras were digitalized and displacements of the center of gravity of the digital image spot were tracked and analyzed. When the speed of displacement of the center of gravity of the spot was below 4.26 cm/sec, the movement was considered as inactivity. When this speed was between 4.26 and 6.75 cm/sec, the movement was considered as a small movement. When this speed was above 6.75 cm/sec, the movement was considered as a large movement. The number of occurrences, distance and duration of fast and slow movements, number of occurrences and duration of periods of inactivity and number of rears were measured.

[9] = biological target: T1, serotonin transporter; assay: 5-HT uptake: displacement of serotonin ligands in vitro (methods of Gu et al.); format: binding; details: displacement of serotonin ligands in vitro; read-out: 5-HT Uptake, Uptake Profile (IC50)
[10] = biological target: T2, norepinephrine transporter (Homo sapiens, UniProt P23975); assay: Functional activity, norephinephrine uptake inhibition in MDCK cell lines; format: cell-based
[11] = biological target: T2, norepinephrine transporter; assay: NE uptake: displacement of norephinephrine ligands in vitro (methods of Galli et al.); format: binding; details: NE Uptake, Uptake Profile (IC50, nM)
[12] = tested on: rats; assay: Behavioral despair assay in rats, 3 i.p. injections (Example 143); format: in vivo, rat; details: for % variation of the total duration of immobility: 3 i.p. injections 24 h, 5 h and 1 h before test
Text: The objective of this study was to assess the antidepressant effects of test compounds 124, 125, 126, and 127 in the behavioral despair assay in rats according to the methods described by Porsolt R. D., Anton G., Blavet N., Jalfre M., Behavioural despair in rats: a new model sensitive to antidepressant treatment, Eur. J. Pharmacol., 1978, 47, 379-391. The animals were preconditioned in a pretest session, where the rats were individually forced to swim inside a vertical plexiglass cylinder containing water maintained at 19-20° C. After 15 minutes in the water, they were allowed to dry for 15 minutes in a heated enclosure. Twenty four hours later, they were replaced in the cylinder and the total duration of immobility was measured during a 5 minute test (test session). The test compounds and vehicle were administered as a series of 3 intraperitoneal injections 24 h, 5 h and 1 h before the 5 minute test on the second day.
as §2

T2 sequence (P23975 whole entry): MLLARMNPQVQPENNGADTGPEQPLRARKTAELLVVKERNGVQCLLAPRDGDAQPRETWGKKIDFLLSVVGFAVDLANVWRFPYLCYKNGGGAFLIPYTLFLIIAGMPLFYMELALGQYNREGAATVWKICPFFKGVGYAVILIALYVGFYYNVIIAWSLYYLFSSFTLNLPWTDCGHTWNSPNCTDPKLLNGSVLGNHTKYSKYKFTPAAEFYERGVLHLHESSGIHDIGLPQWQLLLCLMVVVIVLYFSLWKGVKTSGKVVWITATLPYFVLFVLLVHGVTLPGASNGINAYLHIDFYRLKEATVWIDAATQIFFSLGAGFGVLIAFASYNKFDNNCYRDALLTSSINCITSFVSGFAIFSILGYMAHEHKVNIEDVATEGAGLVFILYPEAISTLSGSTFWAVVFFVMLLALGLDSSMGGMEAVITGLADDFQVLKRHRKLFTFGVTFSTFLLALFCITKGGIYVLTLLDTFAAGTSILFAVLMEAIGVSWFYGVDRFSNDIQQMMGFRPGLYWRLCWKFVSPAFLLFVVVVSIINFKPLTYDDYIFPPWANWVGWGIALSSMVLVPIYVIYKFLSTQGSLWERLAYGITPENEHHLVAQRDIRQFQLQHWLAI
T1 sequence (P31645 whole entry): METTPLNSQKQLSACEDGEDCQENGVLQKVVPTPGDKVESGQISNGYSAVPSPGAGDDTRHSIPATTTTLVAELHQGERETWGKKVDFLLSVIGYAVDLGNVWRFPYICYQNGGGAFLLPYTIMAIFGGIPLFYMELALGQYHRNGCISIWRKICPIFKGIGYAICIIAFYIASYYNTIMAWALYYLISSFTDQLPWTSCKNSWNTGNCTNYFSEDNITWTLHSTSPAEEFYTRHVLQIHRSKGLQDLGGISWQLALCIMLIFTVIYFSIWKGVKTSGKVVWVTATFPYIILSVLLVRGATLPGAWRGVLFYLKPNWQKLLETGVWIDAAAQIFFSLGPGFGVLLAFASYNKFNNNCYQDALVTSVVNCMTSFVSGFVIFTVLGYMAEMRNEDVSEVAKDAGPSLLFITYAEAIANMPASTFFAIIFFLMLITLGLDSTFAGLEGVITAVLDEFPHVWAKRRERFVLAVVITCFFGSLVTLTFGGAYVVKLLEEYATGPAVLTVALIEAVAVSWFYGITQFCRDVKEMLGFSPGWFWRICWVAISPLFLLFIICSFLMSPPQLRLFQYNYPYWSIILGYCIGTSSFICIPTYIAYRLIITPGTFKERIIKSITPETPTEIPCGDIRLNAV
Sequence of DAT (Q01959 whole entry): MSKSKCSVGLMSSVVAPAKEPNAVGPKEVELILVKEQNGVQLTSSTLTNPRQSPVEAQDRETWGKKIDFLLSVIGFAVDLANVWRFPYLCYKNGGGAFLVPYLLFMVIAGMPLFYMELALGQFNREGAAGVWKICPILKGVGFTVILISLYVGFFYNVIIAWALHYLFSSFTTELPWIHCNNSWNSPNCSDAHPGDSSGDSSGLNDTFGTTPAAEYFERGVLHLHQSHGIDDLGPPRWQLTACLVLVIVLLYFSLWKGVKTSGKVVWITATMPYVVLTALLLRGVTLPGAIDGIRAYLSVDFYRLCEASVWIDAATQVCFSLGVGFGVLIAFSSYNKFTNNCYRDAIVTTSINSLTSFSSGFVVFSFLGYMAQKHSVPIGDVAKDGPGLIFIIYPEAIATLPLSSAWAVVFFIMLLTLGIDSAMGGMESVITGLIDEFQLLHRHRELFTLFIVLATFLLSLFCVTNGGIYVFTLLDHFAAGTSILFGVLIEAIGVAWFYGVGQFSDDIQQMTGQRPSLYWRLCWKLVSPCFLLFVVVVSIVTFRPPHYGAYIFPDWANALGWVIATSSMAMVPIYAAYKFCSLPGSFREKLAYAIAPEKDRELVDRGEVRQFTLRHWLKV
Sequence of dopamine transporter (Q01959 whole entry): as above

Structure (SMILES): O[C@H](CN1CCC[C@H](COc2ccc(C(F)(F)F)cc2)C1)C1(c2ccc(Cl)cc2)CCC1 [compound 124, 1S-1-[1-(4-Chloro-phenyl)-cyclobutyl]-2-[(3S)-3-(4-trifluoromethyl-phenoxymethyl)-piperidin-1-yl]-ethanol]
- Large Movement Occurrences ([1]; 1 hour): 655 ± 83
- Small Movement Occurrences ([1]; 1 hour): 1258 ± 83
- Large Movement Occurrences ([1]; 3 hours): 751 ± 122
- Small Movement Occurrences ([1]; 3 hours): 1386 ± 96
- Large Movement Occurrences ([1]; 5 hours): 616 ± 82
- Small Movement Occurrences ([1]; 5 hours): 1277 ± 100
- Large Movement Occurrences ([1]; 8 hours): 455 ± 69
- Small Movement Occurrences ([1]; 8 hours): 1042 ± 109
- Large Movement Occurrences ([1]; 24 hours): 440 ± 55
- Small Movement Occurrences ([1]; 24 hours): 934 ± 87
- locomotor activity compared to control animals [1]: significant increase
- tolerability and mortality after 72 h [2]: well tolerated
- IC50 [3]: < 10 nM
- tolerability and mortality after 72 h [4]: well tolerated
- EC50 [5]: < 10 nM
- EC50 [6]: < 1000 nM
- % variation of the total duration of immobility ([7]; 2.5 mg/kg i.p.): 6%
- % variation of the total duration of immobility ([7]; 10 mg/kg i.p.): 91%
- Small Movement Occurrences ([8]; 5 mg/kg i.p.): 484.5 ± 114.1
- Large Movement Occurrences ([8]; 5 mg/kg i.p., 20 min): 228.7 ± 22.5 ^
- Small Movement Occurrences ([8]; 5 mg/kg i.p., 20 min): 589.2 ± 50.4 ^
- Large Movement Occurrences ([8]; 5 mg/kg i.p., 60 min): 74.3 ± 14.8
- Small Movement Occurrences ([8]; 5 mg/kg i.p., 60 min): 232.8 ± 33.6 ^
- Large Movement Occurrences ([8]; 5 mg/kg i.p., 120 min): 168.5 ± 61.5 ^
- Small Movement Occurrences ([8]; 5 mg/kg i.p., 120 min): 443.1 ± 100.6
- Large Movement Occurrences ([8]; 5 mg/kg i.p., 180 min): 212.5 ± 65.1 ^
- Large Movement Occurrences ([8]; 10 mg/kg i.p., 20 min): 391.5 ± 63.3
- Small Movement Occurrences ([8]; 10 mg/kg i.p., 20 min): 919.6 ± 96.4
- Large Movement Occurrences ([8]; 10 mg/kg i.p., 60 min): 427.6 ± 95.8
- Small Movement Occurrences ([8]; 10 mg/kg i.p., 60 min): 965.2 ± 153.9
- Large Movement Occurrences ([8]; 10 mg/kg i.p., 120 min): 603.5 ± 97.4
- Small Movement Occurrences ([8]; 10 mg/kg i.p., 120 min): 1201.4 ± 160.9
- locomotor activity compared to control animals [8]: significant increase
- IC50 [9]: < 1000 nM
- EC50 [10]: < 1000 nM
- IC50 [11]: < 100 nM
- % variation of the total duration of immobility ([12]; 1.0 mg/kg): 29%
- % variation of the total duration of immobility ([12]; 2.0 mg/kg): 71%
- effectiveness (statistically significant variation >30%) ([12]; 2.5 mg/kg): effective
- % variation of the total duration of immobility ([12]; 2.5 mg/kg): 59%

Structure (SMILES): O[C@H](CN1CCC[C@@H](COc2ccc(C(F)(F)F)cc2)C1)C1(c2ccc(Cl)cc2)CCC1 [compound 126, 1R-1-[1-(4-Chloro-phenyl)-cyclobutyl]-2-[(3R)-3-(4-trifluoromethyl-phenoxymethyl)-piperidin-1-yl]-ethanol]
- Large Movement Occurrences ([1]; 1 hour): 774 ± 110 ^
- Small Movement Occurrences ([1]; 1 hour): 1357 ± 125^
- Large Movement Occurrences ([1]; 3 hours): 956 ± 93^
- Small Movement Occurrences ([1]; 3 hours): 1610 ± 73 ^
- Large Movement Occurrences ([1]; 5 hours): 866 ± 117 ^
- Small Movement Occurrences ([1]; 5 hours): 1575 ± 90 ^
- Large Movement Occurrences ([1]; 8 hours): 746 ± 95^
- Small Movement Occurrences ([1]; 8 hours): 1489 ± 111^
- Large Movement Occurrences ([1]; 24 hours): 1012 ± 81 ^
- Small Movement Occurrences ([1]; 24 hours): 1544 ± 75 ^
- locomotor activity compared to control animals [1]: significant increase
- tolerability and mortality after 72 h [2]: well tolerated
- IC50 [3]: < 10 nM
- tolerability and mortality after 72 h [4]: well tolerated
- EC50 [5]: < 10 nM
- EC50 [6]: < 1000 nM
- effectiveness (statistically significant variation >30%) ([7]; 2.5 mg/kg): effective
- % variation of the total duration of immobility ([7]; 2.5 mg/kg i.p.): 45%
- % variation of the total duration of immobility ([7]; 10 mg/kg i.p.): 99%
- Small Movement Occurrences ([8]; 5 mg/kg i.p.): 651.4 ± 141.2
- Large Movement Occurrences ([8]; 5 mg/kg i.p., 20 min): 287.0 ± 34.4 ^
- Small Movement Occurrences ([8]; 5 mg/kg i.p., 20 min): 711.6 ± 65.7 ^
- Large Movement Occurrences ([8]; 5 mg/kg i.p., 60 min): 204.4 ± 36.3 ^
- Small Movement Occurrences ([8]; 5 mg/kg i.p., 60 min): 563.5 ± 85.0 ^
- Large Movement Occurrences ([8]; 5 mg/kg i.p., 120 min): 293.8 ± 68.9 ^
- Small Movement Occurrences ([8]; 5 mg/kg i.p., 120 min): 717.4 ± 138.6
- Large Movement Occurrences ([8]; 5 mg/kg i.p., 180 min): 270.5 ± 73.8 ^
- Large Movement Occurrences ([8]; 10 mg/kg i.p., 20 min): 364.7 ± 52.7 ^
- Small Movement Occurrences ([8]; 10 mg/kg i.p., 20 min): 904.3 ± 110.8
- Large Movement Occurrences ([8]; 10 mg/kg i.p., 60 min): 644.5 ± 127.3
- Small Movement Occurrences ([8]; 10 mg/kg i.p., 60 min): 1218.7 ± 178.9 ^
- Large Movement Occurrences ([8]; 10 mg/kg i.p., 120 min): 752.7 ± 129.4
- Small Movement Occurrences ([8]; 10 mg/kg i.p., 120 min): 1358.1 ± 137.1 ^
- locomotor activity compared to control animals [8]: significant increase
- IC50 [9]: < 1000 nM
- EC50 [10]: < 1000 nM
- IC50 [11]: < 100 nM
- % variation of the total duration of immobility ([12]; 0.25 mg/kg): 9%
- % variation of the total duration of immobility ([12]; 0.75 mg/kg): 47%
- effectiveness (statistically significant variation >30%) ([12]; 1.0 mg/kg): effective
- % variation of the total duration of immobility ([12]; 1.0 mg/kg): 58%
- effectiveness (statistically significant variation >30%) ([12]; 2.5 mg/kg): effective
- % variation of the total duration of immobility ([12]; 2.5 mg/kg): 76%
